Experimental data from publication PMC7992063 (ACS Omega, 2021).
Entries after “also recorded” stand apart in the source; their conditions may differ. Where two headings read alike, the source gives them in different places.

Tests used:
HCoV 229E = type: cell-based, human coronavirus 229E
EBOV glycoprotein = conditions: cited from earlier work
[1] = tested on: SARS-CoV-2 (isolate USA WA1/2020); assay: microbe, parasite or virus in culture; type: cell-based; conditions: for IC50: Severe acute respiratory syndrome coronavirus 2, Calu-3, read-out: IC50 (EC50), infection (dsRNA+ cells/total cell number)
Vero 76 cells = conditions: African green monkey
[2] = target: SARS-CoV-2 spike receptor binding domain (RBD) (Severe acute respiratory syndrome coronavirus 2, UniProt P0DTC2)
[3] = tested on: SARS-CoV-2 (Strain USA_WA1/2020); assay: microbe, parasite or virus in culture; type: cell-based
SARS-CoV-2 [4] = type: cell-based
Vero cells = conditions: cited from earlier work
[5] = tested on: murine hepatitis virus (MHV); assay: microbe, parasite or virus in culture; type: cell-based; conditions: Murine coronavirus
rVSV-SARS-CoV-2 S = type: cell-based
in vitro [6] = conditions: African green monkey
Calu-3 cells = conditions: cited from earlier work
in vitro [7] = conditions: human
SARS-CoV-2-nLuc = assay: microbe, parasite or virus in culture; type: cell-based; conditions: Severe acute respiratory syndrome coronavirus 2, A549-ACE2
[8] = tested on: SARS-CoV-2 (Strain USA_WA1/2020); assay: microbe, parasite or virus in culture; type: cell-based; conditions: Severe acute respiratory syndrome coronavirus 2, Caco-2, 72 h
SARS-CoV-2 pseudovirus = conditions: mouse, in vivo; cited from earlier work
SARS-CoV-2 [9] = conditions: cited from earlier work
SARS-CoV-2 [10] = assay: microbe, parasite or virus in culture; type: cell-based
SARS-CoV-2 [11] = type: cell-based; conditions: 10 μM; 24 h
SARS-CoV-2 [12] = type: cell-based; remark: listed apart in the source
SARS-CoV-2 [13] = conditions: cited from earlier work; remark: listed apart in the source
lysosomal pH = conditions: read-out: IC50, lysosomotropic; cited from earlier work
spike RBD = conditions: read-out: affinity for spike RBD; cited from earlier work
[14] = Severe acute respiratory syndrome coronavirus 2, Vero 76

Compound | decrease of virus titer (HCoV 229E) [logTCID50/mL] | Kd (EBOV glycoprotein) [µM] | activity against SARS-CoV-2 in Calu-3 [1] | CC50 (Vero 76 cells) [µM] | weaker affinity for spike RBD compared to ACE2 [2] | EC50 [3] [µM] | activity against SARS-CoV-2 in Vero 76 [3] | EC50 [3, 14] [µM] | activity against SARS-CoV-2 in Vero E6 (SARS-CoV-2 [4]) | IC50 [5] [µM] | activity in VSV-pseudotype neutralization assay (rVSV-SARS-CoV-2 S) | neutralization (rVSV-SARS-CoV-2 S) [%] | CC50 (in vitro [6]) [µM] | CC50 (in vitro [7]) [µM] | IC50 (SARS-CoV-2-nLuc) [µM] | EC90 [8] [µM] | IC50 [1] [µM] | further results
COc1ccc2nc3cc(Cl)ccc3c(Nc3cc(CN4CCCC4)c(O)c(CN4CCCC4)c3)c2n1 [pyronaridine, 4-[(7-chloro-2-methoxybenzo[b][1,5]naphthyridin-10-yl)amino]-2,6-bis(1-pyrrolidinylmethyl)phenol phosphate (1:4)] | 2.83 | 7.34 | no activity | 3.85 | 20–40 times | > 3.85 | no activity | > 3.52 | no activity; also recorded: no inhibition | 2.75 | no measurable activity | < 50 | 3.52 | 51.6 | 0.198 | 5.49 | – | CC50 (Vero cells): 37.1 µM; CC50 (Calu-3 cells): 43.1 µM
CCN(CC)CCCC(C)Nc1c2ccc(Cl)cc2nc2ccc(OC)cc12 (stereo not shown) [quinacrine] | 3.9 | 7.55 | no in vitro activity | 6.87 | – | > 6.87 | no in vitro activity | > 7.33 | no in vitro activity; also recorded: no inhibition | 2.3 | – | – | 7.33 | 229 | < 0.2 | 10.5 | – | binding to spike RBD [2]: did not demonstrate reproducible binding; infected cells (SARS-CoV-2 pseudovirus): significant decrease; EC50 (SARS-CoV-2 [9]): 2.83 µM
CCC(CC)COC(=O)[C@H](C)N[P@](=O)(OC[C@H]1O[C@@](C#N)(c2ccc3c(N)ncnn23)[C@H](O)[C@@H]1O)Oc1ccccc1 [remdesivir] | – | – | – | – | – | – | – | – | – | – | – | – | – | – | – | – | 0.016 | inhibition at 0.6 µM (SARS-CoV-2 [10]; Severe acute respiratory syndrome coronavirus 2, Calu-3, read-out: inhibition PFU/mL): ~100%; inhibition of SARS-CoV-2, cell-associated viral RNA levels (SARS-CoV-2 [11]): ~50%
CCN(CC)CCOc1ccc2c(c1)C(=O)c1cc(OCCN(CC)CC)ccc1-2 [tilorone] | – | 0.73 | – | – | 20–40 times | – | – | 6.62 | no inhibition | ~20 | no measurable activity | < 50 | 49.6 | 111 | 0.18 | 29 | 10.8 | inhibition of HCoV-229E (HCoV 229E): did not show significant inhibition; IC50 (SARS-CoV-2 [10]; Severe acute respiratory syndrome coronavirus 2, Calu-3, 48 h): ~9 µM; antiviral activity (SARS-CoV-2 [12]): did not show antiviral activity; IC50 (SARS-CoV-2 [13]): 4 µM; IC50 (lysosomal pH): ~4 µM
ACE2 | – | – | – | – | – | – | – | – | – | – | – | – | – | – | – | – | – | Kd (spike RBD): ~0.015 µM
